The record followed here is US20240092759A1, “Non-Covalent Inhibitors of the Main Protease of SARS-CoV-2 and Methods of Use” (YALE UNIVERSITY, priority 2021, published 2024).

For orientation: EC50 means the concentration that produces a half-maximal response. A word on the CC50: it is the concentration at which the toxic effect on the cells reaches its halfway point. As a reminder, the IC50 is the concentration that gives 50% inhibition.

Read-outs that look alike come from different tables or passages of the source.

Data set [1] deals with recombinant SARS-Cov-2 M^pro (Severe acute respiratory syndrome coronavirus 2 (2019-nCoV) (SARS-CoV-2), UniProt P0DTD1). The experiment in a line: biochemical.
Data set [2] has as its system infectious SARS-CoV-2 (isolate USA-WA1/2020). The experiment in a line: Antiviral assay, cytopathic effect by MTT in Vero E6 cells. It counts as cell-based. The settings on record: for EC50: Severe acute respiratory syndrome coronavirus 2, Vero C1008. In general terms: Damage to the host cells serves as the signal in cytopathic effect assays.
A further data set deals with SARS-CoV-2 replicon. Put plainly: microbe, parasite or virus in culture. It counts as cell-based. The settings on record: for IC50: Severe acute respiratory syndrome coronavirus 2, dose-response curves of FIGS. 6A-6B, read-out: IC50, replicon assay, compound alone. A general note: In antiviral work, replicon cells carry a viral genome segment that copies itself.
The test system of another data set is Vero E6 cells. The experiment in a line: Cellular cytotoxicity by MTT in Vero E6 cells. Conditions: for CC50: read-out: CC50 Vero E6, absence of virus; for cytotoxicity: Vero E6 and NHBE cells.
Data set [3] relates to normal human bronchial epithelial cells (NHBE). Put plainly: Cellular cytotoxicity by MTT in normal human bronchial epithelial cells. The settings on record: read-out: CC50 NHBE; MTT.
Data set [4] deals with infectious SARS-CoV-2 (isolate USA-WA1/2020). The experiment in a line: microbe, parasite or virus in culture. The settings on record: for EC50: Severe acute respiratory syndrome coronavirus 2, Vero C1008, Vero E6 cells, read-out: EC50 Plaque. It counts as cell-based.
Where [5] appears, read: combination with remdesivir, MacSynergy II.
The mark [6] stands for this setting: footnote b: drop in viral titer/incomplete inhibition.

With `CCCOc1cc(Cl)cc(-c2cc(-c3ccccc3C#N)cn(-c3cccnc3)c2=O)c1` [Compound 13, 2-(3-(3-Chloro-5-propoxyphenyl)-2-oxo-2H-[1,3′-bipyridin]-5-yl)benzonitrile], in data set [1] (ratio of IC50 values), the “factor of improvement in potency over 9” value is recorded as “ca. 30”. The EC50 was 2.5 ± 0.7 µM in data set [2] (Vero E6 cells, MOI 0.01, 72 h, NA = not active, read-out: EC50 MTT) and 2.5 µM in data set [2] (read-out: EC50, MTT assay). Besides, the “combination behavior” value in the data set on SARS-CoV-2 replicon (combination with remdesivir) is reported as “statistically significant synergistic behavior”. Besides, in the data set with SARS-CoV-2 replicon (setting [5]), the antagonism volume was 0 μM^2%. Besides, the mean synergy volume with SARS-CoV-2 replicon (setting [5]) worked out at 30.8 μM^2%. The CC50 in the data set with Vero E6 cells stood at 22 µM; in data set [3], 20 ± 2 µM.
As for `O=c1nc(NO)ccn1[C@@H]1O[C@H](CO)C(O)[C@@H]1O` (some centres unmarked) [EIDD-1931, reference compound], the IC50 in the data set on SARS-CoV-2 replicon worked out at 2.23 µM.
Take `O=c1[nH]cc(-c2cc(-c3cc(Cl)cc(OCc4ccccc4Cl)c3)c(=O)n(-c3cccnc3)c2)c(=O)[nH]1` [Compound 37, 5-(3-(3-Chloro-5-((2-chlorobenzyl)oxy)phenyl)-2-oxo-2H-[1,3′-bipyridin]-5-yl)pyrimidine-2,4(1H,3H)-dione]: the “antiviral activity in the MTT assay” value in data set [2] is “lacked antiviral activity”. Also, in data set [4], the “antiviral activity in the viral plaque assay” value is “showed activity”. Moreover, the EC50 in data set [4] (setting [6]) is 11.3 µM. Also, in the data set with Vero E6 cells, the “cytotoxicity” value is on record as “greatest cytotoxicity” and the CC50 was determined as 1.7 ± 0.9 µM. Moreover, the CC50 in data set [3] is 2 ± 0.1 µM.
For the compound `O=c1[nH]cc(-c2cc(-c3cc(Cl)c(F)c(OCc4ccccc4Cl)c3)c(=O)n(-c3cccnc3)c2)c(=O)[nH]1` [Compound 44, 5-(3-(3-Chloro-5-((2-chlorobenzyl)oxy)-4-fluorophenyl)-2-oxo-2H-[1,3′-bipyridin]-5-yl)pyrimidine-2,4(1H,3H)-dione], the “antiviral activity in the MTT assay” value in data set [2] is “lacked antiviral activity”. The “antiviral activity in the viral plaque assay” value in data set [4] was “showed activity”. Moreover, the half-maximal effective concentration (EC50) in data set [4] (MOI 0.01) stood at 0.84 µM. Also, the “cytotoxicity” value with Vero E6 cells is “greatest cytotoxicity”. The CC50 in the data set with Vero E6 cells was found to be 1.15 ± 0.5 µM; in data set [3], 3.5 ± 1 µM.
For the compound `N#Cc1ccccc1-c1cc(-c2cc(Cl)cc(Cl)c2)c(=O)n(-c2cccnc2)c1` [Compound 9, 2-(3-(3,5-Dichlorophenyl)-2-oxo-2H-[1,3′-bipyridin]-5-yl)benzonitrile], the IC50 in data set [1] (IC50) came out at 4.2 µM; in data set [1] (read-out: IC50 (μM), inhibition of SARS-Cov-2 M^pro, Table 4), 4.02 ± 1.36 µM; in the data set on SARS-CoV-2 replicon, 0.0938 µM. The “combination behavior” value in the data set on SARS-CoV-2 replicon (combination with EIDD-1931) is listed as “synergistic effect”.
With `O=c1[nH]cc(-c2cc(-c3cc(Cl)cc(OCc4ccccc4)c3)c(=O)n(-c3cccnc3)c2)c(=O)[nH]1` [Compound 46, 5-(3-(3-(Benzyloxy)-5-chlorophenyl)-2-oxo-2H-[1,3′-bipyridin]-5-yl)pyrimidine-2,4(1H,3H)-dione], in data set [4], the “antiviral activity in the viral plaque assay” value is “antiviral activity was found”. The EC50 in data set [4] (setting [6]) came to 3.2 µM. The values for the CC50 (in the data set with Vero E6 cells; in data set [3]) were 12.3 ± 7 µM and 17.5 ± 5.5 µM, respectively.
